From US6962930B1, “Compounds, compositions and method suitable for amelioration of withdrawal syndromes and withdrawal-induced brain damage” (Lohocla Research Corporation, priority 1997, dated 2005)

Tests used:
[1] = biological target: T1, strychnine-insensitive glycine binding site on the NMDA receptor (Rattus norvegicus, UniProt P35439); assay: [3H]5,7-DCKA binding to rat cortical membranes; details: 20 nM [3H]5,7-DCKA
T1 construct: from tissue; host or cells: rat cerebral cortex, crude synaptic (buffy coat) membranes
Description: Male Sprague-Dawley rats were killed, their brains removed, and their cerebral cortices dissected and binding of [^3H]5,7-dichlorokynurenate ([^3H]5,7-DCKA) assayed. [^3H]5,7-DCKA binding assays were performed in crude synaptic membranes prepared by a modification of the method of Jones, et al., J. Pharmacol. Methods, 21 161–168 (1989) the relevant disclosures of which are incorporated herein by reference. The pelleted “buffy coat”fraction was obtained by centrifugation and frozen at about −80° C. for at least 18 hours. On the day that the binding assays were performed, the pelleted membranes were resuspended in 50 mM HEPES-KOH buffer (pH 7.8) containing 0.08% TRITON® X-100. After stirring for about 30 min at about 4° C., the membranes were pelleted by recentrifugation and then washed twice by resuspension in buffer and centrifugation.
Binding assays were performed in 0.5 ml volume using 150–200 μg of tissue, 20 nM [^3H]5,7-DCKA and 3–300 μM DCUKA or MeO-DCUKA or 1–100 μM DCUK-OMe (all concentrations are final concentrations in 0.6% dimethyl sulfoxide (DMSO)). Incubations were performed for about 45 min at about 4° C. followed by termination by centrifugation. Bound radioactivity was quantitated by liquid scintillation spectroscopy. Non-specific binding was defined with 1 mM glycine.

[2] = biological target: voltage-sensitive sodium channels; assay: [3H]BTX binding to rat cortical synaptosomes; details: non-depolarizing conditions, none = no displacement at 100 μM, read-out: IC50 (μM) [3H]BTX binding
[3] = biological target: T2, NMDA receptor ion channel (Rattus norvegicus, UniProt P35439); assay: [3H]dizocilpine binding to rat cortical membranes; details: no exogenous glycine; 100 or 300 μM DCUKA, 30 or 100 μM DCUK-OMe; attenuated by 1 μM glycine
T2 construct: from tissue; host or cells: rat cerebral cortex, crude synaptic (buffy coat) membranes
Description: [^3H]Dizocilpine (MK-801) binding assays were performed in a volume of 1 ml containing 100–150 μg of tissue, 5 nM [^3H]dizocilpine, 10 μM L-glutamate, 30 μM MgSO4, and 100 or 300 μM DCUKA or 30 or 100 μM DCUK-OMe, in 10 mM HEPES-KOH buffer (pH 7.4 at 23° C.). Incubations were for 30 minutes at room temperature. The reaction mixtures were filtered over GF/B filters presoaked in 0.1% polyethyleneimine. Bound radioactivity was quantitated by liquid scintillation spectroscopy. Non-specific binding was defined with 20 μM dizocilpine. Under these conditions, [^3H]dizocilpine binding can be used as a measure of the activation of the NMDA receptor ion channel by glycine. See, for example, Wong, E. H. F., et al.,“ GLYCINE MODULATES [^3H]MK-801BINDING TO THE NMDA RECEPTOR IN RAT BRAIN.” Eur. J. Pharmacol., 142 487–488 (1987).
The results obtained are plotted in FIG. 2 where open bars indicate no glycine added and hatched bars indicate 1 μM glycine added to the incubation. Data were statistically analyzed by 2-way analysis of variance (ANOVA) followed by Tukey test. In FIG. 2, * denotes P<0.05 compared to the zero concentration of DCUKA or DCUK-OMe within a given glycine condition, while ** denotes P<0.05 compared to the 0 glycine condition at a given concentration of DCUKA or DCUK-OMe. […]

[4] = test system: primary cultures of rat cerebellar granule cells; assay: Glutamate-induced excitotoxic cell death, fluorescein assay; format: cell-based
Description: Primary cultures of cerebellar granule cells were prepared from 6- to 8-day old Sprague-Dawley rats. A description of this procedure can be found in Iorio, K. R., et al., “CHRONIC EXPOSURE OF CEREBELLAR GRANULE CELLS TO ETHANOL RESULTS IN INCREASED N-METHYL-D-ASPARTATE RECEPTOR FUNCTION,” Mol. Pharmacol., 41 1142–1148 (1992), the relevant disclosures of which are incorporated herein by reference. The cultures were maintained in plates containing 24 wells of 1 ml each. Culture density was about 1.5×10^6 cells/ml. Cell viability was assayed after 7–8 days in culture by the production of fluorescein, formed from fluorescein diacetate by esterases present in living cells. […]
Cells were washed with Mg^2+-free Locke's buffer, and then exposed to glutamate alone or glutamate in the presence of 10, 30, or 100 μM DCUK-OMe at 25° C. for 30 minutes. […] For each study, the fluorescence value of a control culture (i.e., not exposed to glutamate) was set to 35,000 fluorescence units, and fluorescence values in all other cultures determined using the same spectrofluorometric settings were normalized to that value. […] The data are then expressed as the percent cell death relative to the control cultures.

SMILES | IC50 [1] | IC50 [2] | effect on [3H]dizocilpine binding [3] | protection from glutamate-induced cell death ([4]; 100 μM) | effect on glutamate-induced cell death ([4]; 10, 30 or 100 μM, 30 minutes with glutamate)
O=C(O)c1cc(NC(=O)N(c2ccccc2)c2ccccc2)c2c(Cl)cc(Cl)cc2n1 [DCUKA, (N,N-diphenyl)-4-ureido-5,7-dichloro-2-carboxy-quinoline] | 22 µM | 76 µM | concentration-related decrease in [^3H]dizocilpine binding | – | –
COC(=O)c1cc(NC(=O)N(c2ccccc2)c2ccccc2)c2c(Cl)cc(Cl)cc2n1 [DCUK-OMe, (N,N-diphenyl)-4-ureido-5,7-dichloro-2-carboxy-quinoline methyl ester] | 5 µM | 25 µM | concentration-related decrease in [^3H]dizocilpine binding | complete protection | can block glutamate-induced cell death in a concentration-dependent manner
